The test system of experiment [1] is aortic rings explants of Dp71-null mice. Description: Mouse aortic ring explant neovessel formation, Dp71-null mice. It counts as cell-based. More on the design: dose or concentration left out as unconfirmed. The conditions noted are these: same treatment with beta-nf, day 4. From the text:
The Dp71-null mice strain was obtained by replacing, via homologous recombination, most of the first and unique exon of Dp71 and of a small part of the Dp71 first intron with a sequence encoding a β-gal-neomycine-(beta-gal) resistance chimeric protein (β-geo). This enabled to monitor with great sensitivity the activity of the promoter using X-gal staining (Sarig et al., 1999).
Thoracic aortas were removed from 2 months-old mice (C57BL/6 and Dp71-null mice) killed by CO2 asphyxiation and immediately transferred to a culture dish containing ice-cold endothelial cell basal medium (EGM-2; Cambrex Bioscience). The periaortic fibroadipose tissue was carefully removed with fine microdissecting forceps and scissors, paying special attention not to damage the aortic wall. One millimeters-long aortic rinaortic rings explants gs (15 per aorta from 12 mice) were sectioned and rinsed extensively in eight consecutive washes of EGM-2. The rings were then individually embedded in 48-well plates previously coated with 50 μl synthetic basement membrane (Matrigel; BD Bioscience) per well. After 1 hour, 500 μl EGM-2 was added to each well, and the cultures were incubated at 37° C. for 5 days. The culture medium was change each day. […] The angiogenic response was determined by measuring the area of neovessel formation on computer (ImageJ or Photoshop software).

Another experiment relates to Dp71. The conditions noted are these: cited from earlier work.
Experiment [2] deals with aortic rings explants of wt mice (C57BL/6). Description: Mouse aortic ring explant neovessel formation, wild-type mice. It counts as cell-based. An excerpt: Thoracic aortas were removed from 2 months-old mice (C57BL/6 and Dp71-null mice) killed by CO2 asphyxiation and immediately transferred to a culture dish containing ice-cold endothelial cell basal medium (EGM-2; Cambrex Bioscience). The periaortic fibroadipose tissue was carefully removed with fine microdissecting forceps and scissors, paying special attention not to damage the aortic wall. One millimeters-long aortic rinaortic rings explants gs (15 per aorta from 12 mice) were sectioned and rinsed extensively in eight consecutive washes of EGM-2. The rings were then individually embedded in 48-well plates previously coated with 50 μl synthetic basement membrane (Matrigel; BD Bioscience) per well. After 1 hour, 500 μl EGM-2 was added to each well, and the cultures were incubated at 37° C. for 5 days. The culture medium was change each day. […] For all cell treatment, the final DMSO concentration was adjusted to 0.1%. The aortic rings were photographed on day 4 at ×2 magnification with a macroscope (Leica). The angiogenic response was determined by measuring the area of neovessel formation on computer (ImageJ or Photoshop software).

Each structure is given as a SMILES string.

Take `O=c1cc(-c2ccccc2)oc2ccc3ccccc3c12` [beta-nf, beta-naphtoflavone]: the “effect on neovessel formation” value in experiment [1] is recorded as “without effect”. In addition, in the experiment with Dp71, the Dp71 expression result is “inhibits Dp71 expression”. Moreover, the “inhibition of neovessel formation” value in experiment [2] (explants of wt mice, beta-nf in 0.1% DMSO, area of neovessel formation on day 4, P<0.001) was 50%. The “neoangiogenesis in aortic rings explants (in words)” value in experiment [2] (wild mice strain expressing Dp71) is given as “inhibition of neoangiogenesis”.

Source of the values: US8603964B2, “Methods for modulating angiogenesis via dystrophin Dp71” (Institut National de la Sante et de la Recherche Medicale …, priority 2008, dated 2013).
